Values of other authors, collected in patent US6555712B2, “Process for the preparation of diorganotrisulfide” (Indian Institute of Technology, priority 2001, dated 2003).
Where two headings read alike, the source gives them in different places. One block for each compound: values may come before it.

Key:
[1] = system: Sitophilus zeamais (Motschulsky)
[2] = system: Tribolium castaneum (Herbst); set-up: egg hatching: dose or concentration left out as unconfirmed
[3] = system: Trypanosoma brucei brucei, T.b. rhodesiense, T.b. gambiense, T. evansi, T. congolense and T. equiperdum; settings: in vitro; one range for six Trypanosoma species
Entamoeba histolytica = settings: in vitro
Giardia Lamblia = settings: in vitro
[4] = system: MASEF, Mastomys natalensis embryo fibroblast; settings: MASEF cell line, in vitro
[5] = system: HEFL-12, human embryo fibroblast; settings: HEFL-12 cell line, in vitro
[6] = system: whole blood platelet-aggregation; settings: DATS present in the steam-distilled component of garlic extract
[7] = system: canine mammary tumor cells (CMT-13)
[8] = system: human neoplastic (A549) lung cells; settings: 10 micromolar
[9] = system: human nonneoplastic (MRC-5) lung cells; settings: 10 microM
[10] = system: intracellular Ca2+ in A549 cells
[11] = system: cultured human neoplastic (A549) lung cells; settings: 1 microM for 24 hours
macrophages [12] = settings: 1-100 micrograms/ml
[13] = system: tumor derived immunosuppressive factors produced by S180 cells and Ehrlich ascitic cancer cells
macrophages [14] = system: macrophages

SMILES: C=CCSSC [Methylallyl disulfide, methylallyl disulfide, reference compound]
growth rate, food consumption, and food utilization of adults ([1]; S. zeamais adults): significantly decreased
feeding deterrence index ([1]; S. zeamais adults, 6.08 mg/g food): 44%
growth rate, food consumption, and food utilization of adults ([2]; T. castaneum adults): significantly decreased
feeding deterrence index ([2]; T. castaneum adults, 1.52 mg/g food): 44%
nutritional indices of T. castaneum larvae ([2]; T. castaneum larvae): did not affect

IC50 (concentration which inhibits metabolism or growth of parasites by 50%) [3]: 0.8-5.5 micrograms/ml
IC50 (concentration which inhibits metabolism or growth of parasites by 50%) (Entamoeba histolytica): 59 micrograms/ml
SMILES: C=CCSSSCC=C [DATS, Diallyltrisulfide]
IC50 (concentration which inhibits metabolism or growth of parasites by 50%) (Giardia Lamblia): 14 micrograms/ml
maximum tolerated concentration [4]: 25 micrograms/ml
maximum tolerated concentration [5]: 25 micrograms/ml
Inhibition of whole blood platelet-aggregation [6]: high
growth of canine mammary tumor cells (CMT-13) [7]: markedly inhibits
reduction of A549 growth [8]: 47%
MRC-5 cell growth [9]: did not alter
intracellular Ca2+ in A549 cells ([10]; 10 microM, during the first four hours after treatment): marked and progressive increase
intracellular Ca2+ in A549 cells after refeeding the medium without DATS ([10]; after refeeding medium without DATS): returned to near control levels within one hour
apoptosis, as indicated by increased DNA fragmentation [11]: significantly induced apoptosis
effect on activation of T lymphocytes by Con A (T lymphocytes; 3.125-12.5 micrograms/ml): augmented
effect on T cell activation (T lymphocytes; high concentration (50 micrograms/ml)): inhibitory effect
production of NO by macrophages (macrophages [12]): can inhibit
inhibition by tumor derived immunosuppressive factors of the activation of T cells (inhibitory rate) [13]: reduce the inhibitory rate significantly
production of hydrogen peroxide (H2O2) by macrophages (macrophages [14]): enhance
feeding deterrence index ([1]; S. zeamais adults, 2.98 mg/g food): 27%
contact and fumigant toxicities ([1]; S. zeamais adults, comparison with methylallyl disulfide): greater than that of methylallyl disulfide
nutritional indices ([1]; all of the insects tested (S. zeamais)): significantly reduced
egg hatching ([2]; T. castaneum): totally suppressed
feeding deterrence ([2]; T. castaneum adults, 0.75 mg/g food): 85%
contact and fumigant toxicities ([2]; T. castaneum adults, comparison with methylallyl disulfide): greater than that of methylallyl disulfide
feeding deterrence index ([2]; T. castaneum larvae, 2.98 mg/g food): 51%
larval and adult emergence ([2]; T. castaneum, at 0.08 mg/cm2): totally suppressed
nutritional indices ([2]; all of the insects tested (T. castaneum)): significantly reduced
